Measured values from patent US6306907A, “Antipsychotic” (Taiyo Fishery Co., Ltd., priority 1992, dated 2001).

Experiments:
[1] = test system: negative symptoms of schizophrenia; experiment: One-month oral administration to subjects, compared with placebo; format: in vivo; conditions: human, oral 300 mg three times a day
Method: Sixteen subjects aged from 35 to 60 were treated with either the antipsychotic of the present invention or a placebo. Eleven out of these sixteen subjects had been treated with chlorpromazine and haloperidol in the past. Eight subjects were treated with the antipsychotic of the present invention and the other eight were treated with the placebo.
Docosahexaenoic acid or placebo was orally administered to the subjects three times a day, each in a dose of 300 mg.

NMDA receptors = experiment: Electrophysiological patch clamp test of the NMDA-induced current in hippocampal CA1 neurons; format: cell-based, rat
Method: Under the circumstances, the effects of docosahexaenoic acid on NMDA receptors of PCP were investigated.
The investigation was conducted by an electrophysiological procedure. More specifically, the brain of a 2-week-old rat was delivered and slices were prepared. Then, neurons were taken from the hippocampal CA1 region and used as samples. An electrophysiological test was conducted by a patch clamp method under fixed potential conditions.

## CC/C=C\C/C=C\C/C=C\C/C=C\C/C=C\C/C=C\CCC(=O)O [docosahexaenoic acid]
[1]
  primary side effects: neither primary side effects
  variations in biochemical blood and urine tests: nor significant variations in biochemical blood and urine tests

## c1ccc(C2(N3CCCCC3)CCCCC2)cc1 [PCP, phencyclidine]
NMDA receptors; 5 μM PCP and 30 μM NMDA
  change of NMDA-induced current on treatment with PCP: decreased by half

## CN[C@H](CC(=O)O)C(=O)O [NMDA, N-methyl-D-aspartic acid]
NMDA receptors; 30 μM NMDA, holding potential -50 mV, rat hippocampal CA1 neurons
  inward current caused by NMDA: 300 pA
